Legend:
Format in all cases: cell-based
[1] = system: VZV (varicella zoster virus, strain ELLEN); assay: Plaque reduction antiviral assay in WI-38 cell culture, VZV; conditions: Human alphaherpesvirus 3; WI-38 monolayers, at least 50% plaque reduction, 5 - 7 days incubation at 37°C; read-out: ID50(μM) for the following viruses VZV
Protocol: (§1) Assays were performed in cell culture systems to determine the concentrations of compounds that are effective in preventing several kinds of viral infections. HSV-1 (herpes simplex virus type 1, strain Schooler), HSV-2 (herpes simplex virus type 2, strain 186), VZV (varicella zoster virus, strain ELLEN), HCMV (human cytomegalovirus, strain AD 169). HSV-1, HSV-2, HCMV and VZV antiviral assays: Virus was adsorbed to WI-38 cell culture monolayers in 6 well culture plates (Costar, Cambridge, MA) for 1 hour prior to addition of maintenance medium containing duplicate dilutions of the test compound. Inhibition of plaque development was evaluated on fixed and stained monolayers after 4 days incubation at 37°C. for HSV-1 and HSV-2, and after 5 - 7 days incubation at 37°C. for HCMV and VZV. ID₅₀ values were determined from the drug concentration which conferred at least a 50% plaque reduction compared to virus controls.

[2] = system: HSV-1 (herpes simplex virus type 1, strain Schooler); assay: Plaque reduction antiviral assay in WI-38 cell culture, HSV-1; conditions: Human alphaherpesvirus 1, 96 h; WI-38 monolayers, at least 50% plaque reduction, 4 days incubation at 37°C; read-out: ID50(μM) for the following viruses HSV-1
Protocol: as §1

[3] = system: HSV-2 (herpes simplex virus type 2, strain 186); assay: Plaque reduction antiviral assay in WI-38 cell culture, HSV-2; conditions: Human alphaherpesvirus 2, 96 h; WI-38 monolayers, at least 50% plaque reduction, 4 days incubation at 37°C; read-out: ID50(μM) for the following viruses HSV-2
Protocol: as §1

[4] = Visible toxicity to the cell monolayers under the antiviral assay conditions; conditions: human, wi-38 cells; concentration at which toxicity was visible
Protocol: HSV-1, HSV-2, HCMV and VZV antiviral assays: Virus was adsorbed to WI-38 cell culture monolayers in 6 well culture plates (Costar, Cambridge, MA) for 1 hour prior to addition of maintenance medium containing duplicate dilutions of the test compound. Inhibition of plaque development was evaluated on fixed and stained monolayers after 4 days incubation at 37°C. for HSV-1 and HSV-2, and after 5 - 7 days incubation at 37°C. for HCMV and VZV. ID₅₀ values were determined from the drug concentration which conferred at least a 50% plaque reduction compared to virus controls.

[5] = system: HCMV (human cytomegalovirus, strain AD 169); assay: Plaque reduction antiviral assay in WI-38 cell culture, HCMV; conditions: Human betaherpesvirus 5; WI-38 monolayers, at least 50% plaque reduction, 5 - 7 days incubation at 37°C; read-out: ID50(μM) for the following viruses HCMV
Protocol: as §1

| SMILES | IC50 [1] [µM] | IC50 [2] [µM] | IC50 [3] [µM] | MCC [4] [µM] | IC50 [5] [µM] |
| --- | --- | --- | --- | --- | --- |
| C=C1C(O)C(CO)CC1n1cc(C)c(=O)[nH]c1=O (stereo not drawn) [Example 3, (1α,3β,4α)-1-[3-Hydroxy-4-(hydroxymethyl)-2-methylenecyclopentyl]-5-methyl-2,4(1H,3H)-pyrimidinedione] | 40 | 100 to 200 | > 396 | 396 | > 396 |
| C=C1C(O)C(CO)CC1n1cc(C=CBr)c(=O)[nH]c1=O (stereo not drawn) [Example 5, [1α(E),3β,4α]-5-[2-Bromoethenyl)-1-[3-hydroxy-4-(hydroxymethyl)-2-methylenecyclopentyl]-2,4-(1H,3H)-pyrimidinedione] | 1.5 to 3 | 291 | > 291 | 291 | – |
| C=C1C(O)C(CO)CC1n1cnc2c(N)ncnc21 (stereo not drawn) [Example 2, (1α,2β,4α)-4-(6-Amino-9H-purin-9-yl)-2-hydroxy-3-methylenecyclopentanemethanol] | > 38 | 383 | 383 | 383 | > 38 |
| C=C1C(O)C(CO)CC1n1cc(I)c(=O)[nH]c1=O (stereo not drawn) [Example 4, (1α,3β,4α)-1-[3-Hydroxy-4-(hydroxymethyl)-2-methylenecyclopentyl]-5-iodo-2,4(1H,3H)-pyrimidinedione] | 275 | > 275 | > 275 | 275 | 28 to 275 |
| C=C1C(O)C(CO)CC1n1cnc2c(=O)[nH]c(N)nc21 (stereo not drawn) [Example 1, (1α,3β,4α)-2-Amino-1,9-dihydro-9-[3-hydroxy-4-(hydroxymethyl)-2-methylenecyclopentyl]-6H-purin-6-one] | 7 to 18 | 4 to 7 | 7 to 18 | 361 | 7 |

Reference: patent EP0630897A2, “3-Hydroxy-4-hydroxymethyl-2-methylene-cyclopentyl purines and pyrimidines” (BRISTOL-MYERS SQUIBB COMPANY, priority 1993, dated 1994)
